# ChEMBL document CHEMBL1201862, “PubChem BioAssay data set” (2004)
#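 Growth conditions: 96-well plates. Treatment: test compound, 48 hours, 5 concentrations. Analysis: linear interpolation between bracketing concentrations; unreached endpoints set to highest concentration. At the GI50, growth is halved.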 Activity calls are given as the source filed them. No stated cut-off is given here; in the data, active = GI50 up to about 1.1 µM and inactive = higher.
# Tests used:
# Experiment in all cases: growth of human tumour cells (NCI), 48 h
# NCI-H23 = tested on: NCI-H23
# BT-549 = tested on: BT-549
# IGROV-1 = tested on: IGROV-1
# SF-539 = tested on: SF-539
# MDA-MB-231 = tested on: MDA-MB-231
# K562 = tested on: K562
# SK-OV-3 = tested on: SK-OV-3
# 786-0 = tested on: 786-0
# UACC-257 = tested on: UACC-257
# OVCAR-8 = tested on: OVCAR-8
# NCI/ADR-RES = tested on: NCI/ADR-RES
# NCI-H522 = tested on: NCI-H522
# PC-3 = tested on: PC-3
# RPMI-8226 = tested on: RPMI-8226
# A549 = tested on: A549
# CCRF-CEM = tested on: CCRF-CEM
# Malme-3M = tested on: Malme-3M
# SN12C = tested on: SN12C
# LOX IMVI = tested on: LOX IMVI
# M14 = tested on: M14
# SF-268 = tested on: SF-268
# Hs-578T = tested on: Hs-578T
# MCF7 = tested on: MCF7
# MDA-MB-435 = tested on: MDA-MB-435
# DU-145 = tested on: DU-145
# NCI-H226 = tested on: NCI-H226
# UO-31 = tested on: UO-31
# TK-10 = tested on: TK-10
# HCT-116 = tested on: HCT-116
# COLO 205 = tested on: COLO 205
# ACHN = tested on: ACHN
# SNB-19 = tested on: SNB-19
# SR = tested on: SR
# SK-MEL-28 = tested on: SK-MEL-28
# UACC-62 = tested on: UACC-62
# SNB-75 = tested on: SNB-75
# OVCAR-3 = tested on: OVCAR-3
# CAKI-1 = tested on: CAKI-1
# OVCAR-4 = tested on: OVCAR-4
# T47D = tested on: T47D
# HT-29 = tested on: HT-29
# RXF 393 = tested on: RXF 393
# HOP-62 = tested on: HOP-62
# NCI-H460 = tested on: NCI-H460
# HCT-15 = tested on: HCT-15
# SF-295 = tested on: SF-295
# EKVX = tested on: EKVX
# MOLT-4 = tested on: MOLT-4
# OVCAR-5 = tested on: OVCAR-5
# KM12 = tested on: KM12
# U-251 = tested on: U-251
# SW-620 = tested on: SW-620
# SK-MEL-5 = tested on: SK-MEL-5
# HOP-92 = tested on: HOP-92
# SK-MEL-2 = tested on: SK-MEL-2
# HL-60 = tested on: HL-60
# A498 = tested on: A498
# MDA-N = tested on: MDA-N
# HCC 2998 = tested on: HCC 2998
structure (smiles),measurement,setting,value
Cc1cccc(Br)[n+]1[O-],GI50,NCI-H23,> 100 µM (inactive)
same,GI50,BT-549,> 100 µM (inactive)
same,GI50,IGROV-1,> 100 µM (inactive)
same,GI50,SF-539,> 100 µM (inactive)
same,GI50,MDA-MB-231,91.6 µM (inactive)
same,GI50,K562,> 100 µM (inactive)
same,GI50,SK-OV-3,> 100 µM (inactive)
same,GI50,786-0,> 100 µM (inactive)
same,GI50,UACC-257,> 100 µM (inactive)
same,GI50,OVCAR-8,> 100 µM (inactive)
same,GI50,NCI/ADR-RES,> 100 µM (inactive)
same,GI50,NCI-H522,> 100 µM (inactive)
same,GI50,PC-3,> 100 µM (inactive)
same,GI50,RPMI-8226,> 100 µM (inactive)
same,GI50,A549,> 100 µM (inactive)
same,GI50,CCRF-CEM,> 100 µM (inactive)
same,GI50,Malme-3M,> 100 µM (inactive)
same,GI50,SN12C,97.1 µM (inactive)
same,GI50,LOX IMVI,> 100 µM (inactive)
same,GI50,M14,> 100 µM (inactive)
same,GI50,SF-268,> 100 µM (inactive)
same,GI50,Hs-578T,> 100 µM (inactive)
same,GI50,MCF7,> 100 µM (inactive)
same,GI50,MDA-MB-435,> 100 µM (inactive)
same,GI50,DU-145,> 100 µM (inactive)
same,GI50,NCI-H226,96.4 µM (inactive)
same,GI50,UO-31,> 100 µM (inactive)
same,GI50,TK-10,> 100 µM (inactive)
same,GI50,HCT-116,> 100 µM (inactive)
same,GI50,COLO 205,> 100 µM (inactive)
same,GI50,ACHN,> 100 µM (inactive)
same,GI50,SNB-19,> 100 µM (inactive)
same,GI50,SR,> 100 µM (inactive)
same,GI50,SK-MEL-28,> 100 µM (inactive)
same,GI50,UACC-62,> 100 µM (inactive)
same,GI50,SNB-75,> 100 µM (inactive)
same,GI50,OVCAR-3,> 100 µM (inactive)
same,GI50,CAKI-1,> 100 µM (inactive)
same,GI50,OVCAR-4,> 100 µM (inactive)
same,GI50,T47D,> 100 µM (inactive)
same,GI50,HT-29,> 100 µM (inactive)
same,GI50,RXF 393,> 100 µM (inactive)
same,GI50,HOP-62,> 100 µM (inactive)
same,GI50,NCI-H460,> 100 µM (inactive)
same,GI50,HCT-15,> 100 µM
same,GI50,SF-295,> 100 µM (inactive)
same,GI50,EKVX,> 100 µM (inactive)
same,GI50,MOLT-4,> 100 µM (inactive)
same,GI50,OVCAR-5,> 100 µM (inactive)
same,GI50,KM12,> 100 µM (inactive)
same,GI50,U-251,> 100 µM (inactive)
same,GI50,SW-620,> 100 µM (inactive)
same,GI50,SK-MEL-5,> 100 µM (inactive)
same,GI50,HOP-92,> 100 µM (inactive)
same,GI50,SK-MEL-2,> 100 µM (inactive)
O=C1c2cccnc2S(=O)(=O)N1c1ccc(Oc2ccccc2)cc1,GI50,NCI-H23,> 100 µM (inactive)
same,GI50,BT-549,> 100 µM (inactive)
same,GI50,IGROV-1,> 100 µM (inactive)
same,GI50,SF-539,> 100 µM (inactive)
same,GI50,MDA-MB-231,> 100 µM (inactive)
same,GI50,K562,> 100 µM (inactive)
same,GI50,SK-OV-3,41.4 µM (inactive)
same,GI50,786-0,> 100 µM (inactive)
same,GI50,UACC-257,92.7 µM (inactive)
same,GI50,OVCAR-8,> 100 µM (inactive)
same,GI50,NCI/ADR-RES,> 100 µM (inactive)
same,GI50,NCI-H522,> 100 µM (inactive)
same,GI50,PC-3,72.3 µM (inactive)
same,GI50,HL-60,> 100 µM (inactive)
same,GI50,RPMI-8226,> 100 µM (inactive)
same,GI50,A549,91.8 µM (inactive)
same,GI50,CCRF-CEM,90.4 µM (inactive)
same,GI50,Malme-3M,> 100 µM (inactive)
same,GI50,SN12C,> 100 µM (inactive)
same,GI50,M14,> 100 µM (inactive)
same,GI50,SF-268,> 100 µM (inactive)
same,GI50,MCF7,> 100 µM (inactive)
same,GI50,MDA-MB-435,> 100 µM (inactive)
same,GI50,DU-145,> 100 µM (inactive)
same,GI50,NCI-H226,> 100 µM (inactive)
same,GI50,UO-31,> 100 µM (inactive)
same,GI50,A498,> 100 µM (inactive)
same,GI50,HCT-116,> 100 µM (inactive)
same,GI50,COLO 205,> 100 µM (inactive)
same,GI50,ACHN,> 100 µM (inactive)
same,GI50,SNB-19,> 100 µM (inactive)
same,GI50,SR,80 µM (inactive)
same,GI50,SK-MEL-28,> 100 µM (inactive)
same,GI50,UACC-62,> 100 µM (inactive)
same,GI50,SNB-75,> 100 µM (inactive)
same,GI50,OVCAR-3,> 100 µM (inactive)
same,GI50,CAKI-1,51.8 µM (inactive)
same,GI50,OVCAR-4,> 100 µM (inactive)
same,GI50,T47D,> 100 µM (inactive)
same,GI50,HT-29,> 100 µM (inactive)
same,GI50,MDA-N,> 100 µM (inactive)
same,GI50,RXF 393,69.7 µM (inactive)
same,GI50,HOP-62,> 100 µM (inactive)
same,GI50,NCI-H460,> 100 µM (inactive)
same,GI50,HCT-15,> 100 µM
same,GI50,SF-295,> 100 µM (inactive)
same,GI50,EKVX,> 100 µM (inactive)
same,GI50,MOLT-4,92 µM (inactive)
same,GI50,OVCAR-5,> 100 µM (inactive)
same,GI50,KM12,> 100 µM (inactive)
same,GI50,U-251,> 100 µM (inactive)
same,GI50,SW-620,> 100 µM (inactive)
same,GI50,HCC 2998,> 100 µM (inactive)
same,GI50,HOP-92,> 100 µM (inactive)
same,GI50,SK-MEL-2,> 100 µM (inactive)
